# Patent publication US10988523B2, “Modified lipidated Relaxin B chain peptides and their therapeutic use” (Sanofi, priority 2018, dated 2021)
# *1 amine or outer side, *2 acyl side, *3 side chain or, on linkers, in order; H or OH if unused. Where a SMILES comes first, the peptide text is derived from it. Side-chain parts run from the residue outwards. [ ]: non-standard residue; d: D form. The star is where a group is joined. γGlu = O=C(O)[C@H](CCC(=O)[*:2])N[*:1]; Stearoyl = CCCCCCCCCCCCCCCCCC(=O)*; Palmitoyl = CCCCCCCCCCCCCCCC(=O)*; Nle = CCCC[C@H](N)C(=O)O; AEEA = NCCOCCOCC(=O)O; Aib = CC(C)(N)C(=O)O
# Target: T1, RXFP1 (Homo sapiens, UniProt Q9HBX9)
# T1 construct: OVCAR5 cells expressing endogenous RXFP1; endogenous in cells; host or cells: OVCAR5 cells
# T1 sequence (Q9HBX9 1-757): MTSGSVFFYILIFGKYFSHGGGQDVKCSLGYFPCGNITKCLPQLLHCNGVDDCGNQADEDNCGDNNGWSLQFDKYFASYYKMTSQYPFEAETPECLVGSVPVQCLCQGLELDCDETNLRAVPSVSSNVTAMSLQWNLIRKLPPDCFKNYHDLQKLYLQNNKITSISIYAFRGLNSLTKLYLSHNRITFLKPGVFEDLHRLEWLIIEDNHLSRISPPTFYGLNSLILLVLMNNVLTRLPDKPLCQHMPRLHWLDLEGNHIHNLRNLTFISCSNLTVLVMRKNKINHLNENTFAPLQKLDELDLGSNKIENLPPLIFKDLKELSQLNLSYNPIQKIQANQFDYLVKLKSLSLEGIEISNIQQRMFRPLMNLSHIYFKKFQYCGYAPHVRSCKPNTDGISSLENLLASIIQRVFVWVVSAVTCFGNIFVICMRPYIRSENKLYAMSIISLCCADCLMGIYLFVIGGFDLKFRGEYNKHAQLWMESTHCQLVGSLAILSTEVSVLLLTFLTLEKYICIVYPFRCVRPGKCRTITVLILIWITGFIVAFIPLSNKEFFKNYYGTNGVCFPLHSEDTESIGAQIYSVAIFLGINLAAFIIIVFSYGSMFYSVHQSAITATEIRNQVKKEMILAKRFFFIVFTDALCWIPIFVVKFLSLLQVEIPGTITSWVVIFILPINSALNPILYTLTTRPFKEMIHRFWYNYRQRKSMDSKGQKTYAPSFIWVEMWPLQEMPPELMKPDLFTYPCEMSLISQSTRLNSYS
# Experiment: OVCAR5 cAMP assay (HTRF), RXFP1 agonist activity
# Format: cell-based
# Conditions: OVCAR5 cells, cAMP HTRF; read-out: EC50 (nM), OVCAR 5 cells (cAMP)
# Method in brief: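 OVCAR5 cells (endogenous RXFP1) pretreated 40 min at 37° C with 1 mM IBMX, then exposed to peptides in serum-free medium for 30 min at 37° C. Lysate cAMP read by HTRF; EC50 from variable-slope sigmoidal fit; Emax as % of H2-relaxin maximal cAMP in same run.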
row,EC50,Compound
1,4.4 nM,CCCCCCCCCCCCCCCC(=O)N[C@@H](CCC(=O)N[C@@H](CCC(=O)NCCOCCOCC(=O)NCCOCCOCC(=O)NCCCC[C@H](NC(=O)[C@H](CCCCN)NC(=O)[C@H](CCCNC(=N)N)NC(=O)C(C)(C)NC(=O)[C@H](CO)NC(=O)[C@H](Cc1c[nH]c2ccccc12)NC(=O)[C@@H](NC(=O)[C@H](CO)NC(=O)[C@H](CCCC)NC(=O)CNC(=O)[C@H](CCC(=O)O)NC(=O)C(C)(C)NC(=O)C(C)(C)NC(=O)[C@@H](NC(=O)[C@H](C)NC(=O)[C@H](C)NC(=O)[C@H](CCCNC(=N)N)NC(=O)[C@@H](NC(=O)[C@H](CCCCN)NC(=O)[C@H](CCC(=O)O)NC(=O)[C@H](CCCNC(=N)N)NC(=O)CNC(=O)[C@H](CCC(=O)O)NC(=O)[C@H](CC(C)C)NC(=O)[C@H](CCC(=O)O)NC(C)=O)C(C)C)[C@@H](C)CC)[C@@H](C)O)C(N)=O)C(=O)O)C(=O)O [compound 57] (Ac-ELEGREKVRAAI[Aib][Aib]EG[Nle]STWS[Aib]RKK([AEEA-AEEA-γGlu-γGlu-Palmitoyl])-NH2)

# Same assay, conditions: OVCAR-5; maximal cAMP relative to H2-relaxin maximum (100%); read-out: EMax, OVCAR 5 cells (cAMP)
row,Emax,Compound
1,98%,CCCCCCCCCCCCCCCCCC(=O)NCCOCCOCC(=O)NCCOCCOCC(=O)NCCOCCOCC(=O)NCCCC[C@H](NC(=O)[C@H](CCCCNC(C)=O)NC(=O)[C@H](CCCCN)NC(=O)[C@H](CCCNC(=N)N)NC(=O)C(C)(C)NC(=O)[C@H](CO)NC(=O)[C@H](Cc1c[nH]c2ccccc12)NC(=O)[C@@H](NC(=O)[C@H](CO)NC(=O)[C@H](CCCC)NC(=O)CNC(=O)[C@H](CCC(=O)O)NC(=O)C(C)(C)NC(=O)C(C)(C)NC(=O)[C@@H](NC(=O)[C@H](CCC(N)=O)NC(=O)[C@H](C)NC(=O)[C@H](CCCNC(=N)N)NC(=O)[C@@H](NC(=O)[C@H](CCCCN)NC(=O)[C@H](CCC(=O)O)NC(=O)[C@H](CCCNC(=N)N)NC(=O)CNC(=O)[C@H](CCC(=O)O)NC(=O)[C@H](CC(C)C)NC(C)=O)C(C)C)[C@@H](C)CC)[C@@H](C)O)C(N)=O [compound 52] (Ac-LEGREKVRAQI[Aib][Aib]EG[Nle]STWS[Aib]RKK(Ac)K([AEEA-AEEA-AEEA-Stearoyl])-NH2)
2,97%,CCCCCCCCCCCCCCCC(=O)N[C@@H](CCC(=O)NCCOCCOCC(=O)NCCCC[C@H](NC(=O)[C@H](CCCCN)NC(=O)[C@H](CCCNC(=N)N)NC(=O)C(C)(C)NC(=O)[C@H](CO)NC(=O)[C@H](Cc1c[nH]c2ccccc12)NC(=O)[C@@H](NC(=O)[C@H](CO)NC(=O)[C@H](CCCC)NC(=O)CNC(=O)[C@H](CCC(=O)O)NC(=O)C(C)(C)NC(=O)C(C)(C)NC(=O)[C@@H](NC(=O)[C@H](CCC(N)=O)NC(=O)[C@H](C)NC(=O)[C@H](CCCNC(=N)N)NC(=O)[C@@H](NC(=O)[C@H](CCCCN)NC(=O)[C@H](CCC(=O)O)NC(=O)[C@H](CCCNC(=N)N)NC(=O)CNC(=O)[C@H](CCC(=O)O)NC(=O)[C@H](CC(C)C)NC(C)=O)C(C)C)[C@@H](C)CC)[C@@H](C)O)C(N)=O)C(=O)O [compound 53] (Ac-LEGREKVRAQI[Aib][Aib]EG[Nle]STWS[Aib]RKK([AEEA-γGlu-Palmitoyl])-NH2)
3,98%,CCCCCCCCCCCCCCCC(=O)N[C@@H](CCC(=O)N[C@@H](CCC(=O)NCCOCCOCC(=O)NCCCC[C@H](NC(=O)[C@H](CCCCN)NC(=O)[C@H](CCCNC(=N)N)NC(=O)C(C)(C)NC(=O)[C@H](CO)NC(=O)[C@H](Cc1c[nH]c2ccccc12)NC(=O)[C@@H](NC(=O)[C@H](CO)NC(=O)[C@H](CCCC)NC(=O)CNC(=O)[C@H](CCC(=O)O)NC(=O)C(C)(C)NC(=O)C(C)(C)NC(=O)[C@@H](NC(=O)[C@H](C)NC(=O)[C@H](C)NC(=O)[C@H](CCCNC(=N)N)NC(=O)[C@@H](NC(=O)[C@H](CCCCN)NC(=O)[C@H](CCC(=O)O)NC(=O)[C@H](CCCNC(=N)N)NC(=O)CNC(=O)[C@H](CCC(=O)O)NC(=O)[C@H](CC(C)C)NC(=O)[C@H](CCC(=O)O)NC(C)=O)C(C)C)[C@@H](C)CC)[C@@H](C)O)C(N)=O)C(=O)O)C(=O)O [compound 54] (Ac-ELEGREKVRAAI[Aib][Aib]EG[Nle]STWS[Aib]RKK([AEEA-γGlu-γGlu-Palmitoyl])-NH2)
4,94%,CCCCCCCCCCCCCCCC(=O)N[C@@H](CCC(=O)N[C@@H](CCC(=O)N[C@@H](CCC(=O)NCCOCCOCC(=O)NCCCC[C@H](NC(=O)[C@H](CCCCN)NC(=O)[C@H](CCCNC(=N)N)NC(=O)C(C)(C)NC(=O)[C@H](CO)NC(=O)[C@H](Cc1c[nH]c2ccccc12)NC(=O)[C@@H](NC(=O)[C@H](CO)NC(=O)[C@H](CCCC)NC(=O)CNC(=O)[C@H](CCC(=O)O)NC(=O)C(C)(C)NC(=O)C(C)(C)NC(=O)[C@@H](NC(=O)[C@H](CCC(N)=O)NC(=O)[C@H](C)NC(=O)[C@H](CCCNC(=N)N)NC(=O)[C@@H](NC(=O)[C@H](CCCCN)NC(=O)[C@H](CCC(=O)O)NC(=O)[C@H](CCCNC(=N)N)NC(=O)CNC(=O)[C@H](CCC(=O)O)NC(=O)[C@H](CC(C)C)NC(C)=O)C(C)C)[C@@H](C)CC)[C@@H](C)O)C(N)=O)C(=O)O)C(=O)O)C(=O)O [compound 55] (Ac-LEGREKVRAQI[Aib][Aib]EG[Nle]STWS[Aib]RKK([AEEA-γGlu-γGlu-γGlu-Palmitoyl])-NH2)
5,95%,CCCCCCCCCCCCCCCCCC(=O)N[C@@H](CCC(=O)NCCOCCOCC(=O)NCCOCCOCC(=O)NCCCC[C@H](NC(=O)[C@H](CCCCN)NC(=O)[C@H](CCCNC(=N)N)NC(=O)C(C)(C)NC(=O)[C@H](CO)NC(=O)[C@H](Cc1c[nH]c2ccccc12)NC(=O)[C@@H](NC(=O)[C@H](CO)NC(=O)[C@H](CCCC)NC(=O)CNC(=O)[C@H](CCC(=O)O)NC(=O)C(C)(C)NC(=O)C(C)(C)NC(=O)[C@@H](NC(=O)[C@H](CCC(N)=O)NC(=O)[C@H](C)NC(=O)[C@H](CCCNC(=N)N)NC(=O)[C@@H](NC(=O)[C@H](CCCCN)NC(=O)[C@H](CCC(=O)O)NC(=O)[C@H](CCCNC(=N)N)NC(=O)CNC(=O)[C@H](CCC(=O)O)NC(=O)[C@H](CC(C)C)NC(C)=O)C(C)C)[C@@H](C)CC)[C@@H](C)O)C(N)=O)C(=O)O [compound 56] (Ac-LEGREKVRAQI[Aib][Aib]EG[Nle]STWS[Aib]RKK([AEEA-AEEA-γGlu-Stearoyl])-NH2)
6,93%,CCCCCCCCCCCCCCCC(=O)N[C@@H](CCC(=O)N[C@@H](CCC(=O)NCCOCCOCC(=O)NCCOCCOCC(=O)NCCCC[C@H](NC(=O)[C@H](CCCCN)NC(=O)[C@H](CCCNC(=N)N)NC(=O)C(C)(C)NC(=O)[C@H](CO)NC(=O)[C@H](Cc1c[nH]c2ccccc12)NC(=O)[C@@H](NC(=O)[C@H](CO)NC(=O)[C@H](CCCC)NC(=O)CNC(=O)[C@H](CCC(=O)O)NC(=O)C(C)(C)NC(=O)C(C)(C)NC(=O)[C@@H](NC(=O)[C@H](C)NC(=O)[C@H](C)NC(=O)[C@H](CCCNC(=N)N)NC(=O)[C@@H](NC(=O)[C@H](CCCCN)NC(=O)[C@H](CCC(=O)O)NC(=O)[C@H](CCCNC(=N)N)NC(=O)CNC(=O)[C@H](CCC(=O)O)NC(=O)[C@H](CC(C)C)NC(=O)[C@H](CCC(=O)O)NC(C)=O)C(C)C)[C@@H](C)CC)[C@@H](C)O)C(N)=O)C(=O)O)C(=O)O [compound 57] (Ac-ELEGREKVRAAI[Aib][Aib]EG[Nle]STWS[Aib]RKK([AEEA-AEEA-γGlu-γGlu-Palmitoyl])-NH2)
7,85%,CCCCCCCCCCCCCCCC(=O)N[C@@H](CCC(=O)N[C@@H](CCC(=O)N[C@@H](CCC(=O)NCCOCCOCC(=O)NCCOCCOCC(=O)NCCCC[C@H](NC(=O)[C@H](CCCCN)NC(=O)[C@H](CCCNC(=N)N)NC(=O)C(C)(C)NC(=O)[C@H](CO)NC(=O)[C@H](Cc1c[nH]c2ccccc12)NC(=O)[C@@H](NC(=O)[C@H](CO)NC(=O)[C@H](CCCC)NC(=O)CNC(=O)[C@H](CCC(=O)O)NC(=O)C(C)(C)NC(=O)C(C)(C)NC(=O)[C@@H](NC(=O)[C@H](CCCCNC(C)=O)NC(=O)[C@H](C)NC(=O)[C@H](CCCNC(=N)N)NC(=O)[C@@H](NC(=O)[C@H](CCCCN)NC(=O)[C@H](CCC(=O)O)NC(=O)[C@H](CCCNC(=N)N)NC(=O)CNC(=O)[C@H](CCC(=O)O)NC(=O)[C@H](CC(C)C)NC(C)=O)C(C)C)[C@@H](C)CC)[C@@H](C)O)C(N)=O)C(=O)O)C(=O)O)C(=O)O [compound 59] (Ac-LEGREKVRAK(Ac)I[Aib][Aib]EG[Nle]STWS[Aib]RKK([AEEA-AEEA-γGlu-γGlu-γGlu-Palmitoyl])-NH2)
